Source: patent US11008304B2, “Tetrazole containing apoptosis signal-regulating kinase 1 inhibitors and methods of use thereof” (ENANTA PHARMACEUTICALS, INC., priority 2018, dated 2021)

Target: ASK1 kinase (Homo sapiens (Human), UniProt Q99683)
Experiment: HTRF KinEASE assay of ASK1 kinase activity inhibition
Assay type: biochemical
Details: 5 nM ASK1, 1 uM STK3 peptide substrate, 100 uM ATP, TR-FRET readout
Procedure: The ability (IC50) of compounds to inhibit ASK1 kinase activity was determined by HTRF® KinEASE™ Assay System. ASK1 was purchased from Thermofisher (Catalogue #PV4011), ATP was purchased from Sigma (Catalogue #A7699), HTRF® KinEASE™ Assay System was obtained from Cisbio (Bedford, Mass.). ½ Area plate was purchased from Perkin Elmer (Catalogue ##6005560). HTRF® KinEASE™-STK is a generic method for measuring serine/threonine kinase activities using a time-resolved fluorescence resonance energy transfer (TR-FRET) immunoassay. The IC50 value for each compound was determined in the presence of compound (various concentration from 0 to 10 μM) and a fixed amount of ATP and peptide substrates. The test compound, 1 uM STK3 peptide substrate, and 5 nM of ASK1 kinase are incubated with kinase reaction buffer containing 50 mM HEPES pH 7.5, 0.01% BRIJ-35, 10 mM MgCl2, and 1 mM EGTA for 30 minutes. 100 uM ATP is added to start kinase reaction and incubated for 3 hours. The STK3-antibody labeled with Eu^3+-Cryptate and 125 nM streptavidin-XL665 are mixed in a single addition with stop reagents provided by the Cisbio kit used to stop the kinase reaction. Fluorescence is detected using an Envision Multilabeled 2014 reader from PerkinElmer. The Fluorescence is measured at 615 nm (Cryptate) and 665 nm (XL665) and a ratio of 665 nm/615 nm is calculated for each well. The resulting TR-FRET is proportional to the phosphorylation level. Staurosporine was used as the positive control. IC50 was determined by XLfit 5.3. By using above method, the inhibition of ASK1 was tested for the compound of formula (I). IC50 ranges are as follows: A<1 nM; 1 nM<B<10 nM; 10 nM<C<100 nM; 100 nM<D<1 μM; E>1 μM.

Chain of ASK1 kinase (Q99683 whole entry): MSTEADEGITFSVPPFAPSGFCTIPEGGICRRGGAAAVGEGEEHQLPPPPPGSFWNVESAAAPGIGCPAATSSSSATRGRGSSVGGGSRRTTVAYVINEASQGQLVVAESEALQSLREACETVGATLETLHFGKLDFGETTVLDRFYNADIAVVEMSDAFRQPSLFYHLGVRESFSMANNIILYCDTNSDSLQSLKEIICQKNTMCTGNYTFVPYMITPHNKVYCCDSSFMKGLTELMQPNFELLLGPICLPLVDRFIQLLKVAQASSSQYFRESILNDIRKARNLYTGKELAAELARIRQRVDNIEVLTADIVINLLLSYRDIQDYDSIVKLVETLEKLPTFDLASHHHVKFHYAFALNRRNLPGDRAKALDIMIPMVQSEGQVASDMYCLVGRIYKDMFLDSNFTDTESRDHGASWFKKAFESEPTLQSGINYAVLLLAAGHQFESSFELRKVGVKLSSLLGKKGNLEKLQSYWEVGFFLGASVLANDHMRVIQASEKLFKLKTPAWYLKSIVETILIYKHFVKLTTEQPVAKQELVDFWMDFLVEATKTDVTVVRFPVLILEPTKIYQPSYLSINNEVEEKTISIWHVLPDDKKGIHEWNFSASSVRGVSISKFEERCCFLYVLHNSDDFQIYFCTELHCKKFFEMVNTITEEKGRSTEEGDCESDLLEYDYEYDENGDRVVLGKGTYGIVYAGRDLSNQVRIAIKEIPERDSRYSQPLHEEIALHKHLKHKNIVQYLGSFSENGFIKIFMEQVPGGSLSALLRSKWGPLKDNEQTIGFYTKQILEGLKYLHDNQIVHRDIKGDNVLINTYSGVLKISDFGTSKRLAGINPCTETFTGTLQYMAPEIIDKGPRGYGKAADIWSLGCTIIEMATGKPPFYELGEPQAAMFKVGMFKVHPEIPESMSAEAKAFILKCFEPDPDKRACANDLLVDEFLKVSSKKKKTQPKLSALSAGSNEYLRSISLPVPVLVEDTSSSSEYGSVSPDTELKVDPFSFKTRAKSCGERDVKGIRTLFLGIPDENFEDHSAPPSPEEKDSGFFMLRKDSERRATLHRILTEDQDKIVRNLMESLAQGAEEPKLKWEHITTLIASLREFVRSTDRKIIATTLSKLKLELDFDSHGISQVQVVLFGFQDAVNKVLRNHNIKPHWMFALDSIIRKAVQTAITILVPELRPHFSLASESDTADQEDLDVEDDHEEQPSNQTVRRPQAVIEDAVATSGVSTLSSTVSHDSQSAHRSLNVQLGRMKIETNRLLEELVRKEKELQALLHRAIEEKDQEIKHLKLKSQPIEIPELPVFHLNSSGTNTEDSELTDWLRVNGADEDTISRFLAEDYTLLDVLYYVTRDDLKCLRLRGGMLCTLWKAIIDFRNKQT

| Compound | IC50 |
| --- | --- |
| Cc1cc(F)c(C(=O)Nc2cccc(-n3nnnc3C(C)C)n2)cc1-c1ccn(C(C)C)n1 [Example 59] | > 1000 nM |
| Cc1cnc(C(=O)Nc2cccc(-n3nnnc3C(C)C)n2)cc1-c1cnn(C(C)(C)C)c1 [Example 21] | 10 to 100 nM |
| Cc1cc(F)c(C(=O)Nc2cccc(-c3nnnn3[C@H](C)CO)n2)cc1-c1ccn(C(C)C)n1 [Example 60] | 10 to 100 nM |
| Cc1nc(-c2cc(C(=O)Nc3cccc(-c4nnnn4C(C)C)n3)ncc2C)cs1 [Example 40] | 10 to 100 nM |
| CC(C)n1nnnc1-c1cccc(NC(=O)c2cc(-c3cnn(C4CC4)c3)c(F)cn2)n1 [Example 3] | 10 to 100 nM |
| Cc1cnc(C(=O)Nc2cccc(-c3nnnn3C(C)C)n2)cc1-c1ccn(C(C)C)n1 [Example 33] | 10 to 100 nM |
| CC(C)n1nnnc1-c1nc(NC(=O)c2cc(-c3cnn(C4CC4)c3)c(F)cn2)cs1 [Example 8] | 10 to 100 nM |
| Cc1cc(F)c(C(=O)Nc2cccc(-c3nnnn3C(C)C)n2)cc1-c1ccccn1 [Example 64] | 100 to 1000 nM |
| Cc1cc(F)c(C(=O)Nc2cccc(-c3nnnn3C(C)C)n2)cc1-c1ccc(C2CC2)s1 [Example 69] | 10 to 100 nM |
| Cc1nc(-c2cc(C(=O)Nc3cccc(-c4nnnn4C(C)C)n3)c(F)cc2C)cs1 [Example 68] | 100 to 1000 nM |
| Cc1cnc(C(=O)Nc2cccc(-c3nnnn3C(C)C)n2)cc1-c1cn(C(C)C)cn1 [Example 23] | 10 to 100 nM |
| Cc1cnc(C(=O)Nc2cccc(-c3nnnn3C(C)C)n2)cc1-c1ccncc1 [Example 38] | 10 to 100 nM |
| Cc1ncc(-c2cc(C(=O)Nc3cccc(-c4nnnn4C(C)C)n3)c(F)cc2C)s1 [Example 67] | 10 to 100 nM |
| CC(C)n1nnnc1-c1cccc(NC(=O)c2cc(-c3cnn(C4CC4)c3)ccn2)n1 [Example 1] | 10 to 100 nM |
| Cc1cc(F)c(C(=O)Nc2cccc(-c3nnnn3[C@H](C)CO)n2)cc1-c1cn(C(C)C)cn1 [Example 63] | 10 to 100 nM |
| CC(C)n1nnnc1-c1nc(NC(=O)c2cc(-c3cnn(C4CC4)c3)c(C(F)(F)F)cn2)cs1 [Example 15] | 10 to 100 nM |
| Cc1cnc(C(=O)Nc2cccc(-c3nnnn3C(C)C)n2)cc1-c1ccccn1 [Example 36] | 10 to 100 nM |

| Compound | IC50 |
| --- | --- |
| Cc1cnc(C(=O)Nc2cccc(-c3nnnn3[C@H](C)CO)n2)cc1-c1cn(C(C)C)cn1 [Example 25] | 1 to 10 nM |
| Cc1cnc(C(=O)Nc2cccc(-c3nnnn3[C@H](C)CO)n2)cc1-c1cccnc1 [Example 41] | 1 to 10 nM |
| Cc1cc(F)c(C(=O)Nc2cccc(-c3nnnn3[C@H]3CCC[C@@H]3O)n2)cc1-c1cnn(C2CC2)c1 [Example 83] | 1 to 10 nM |
| Cc1cc(F)c(C(=O)Nc2cccc(-c3nnnn3[C@H](C)CO)n2)cc1-c1cnn(C(C)(C)C)c1 [Example 54] | 1 to 10 nM |
| CC(C)n1nnnc1-c1cccc(NC(=O)c2cc(-c3cnn(C4CC4)c3)c(N3CCCC3)cn2)n1 [Example 4] | 10 to 100 nM |
| Cc1cc(F)c(C(=O)Nc2cccc(-c3nnnn3[C@H](C)CO)n2)cc1-c1cnn(C2CC2)c1 [Example 47] | 1 to 10 nM |
| Cc1cnc(C(=O)Nc2cccc(-c3nnnn3C(C)C)n2)cc1-c1cnn(C2CC2)c1 [Example 2] | 10 to 100 nM |
| Cc1cc(F)c(C(=O)Nc2cccc(-c3nnnn3C(C)C)n2)cc1-c1cnn(C(F)(F)F)c1 [Example 55] | 10 to 100 nM |
| Cc1cnc(C(=O)Nc2cccc(-n3nnnc3C(C)C)n2)cc1-c1ccn(C(C)C)n1 [Example 34] | > 1000 nM |
| CC(C)n1nnnc1-c1cccc(NC(=O)c2cc(-c3cnn(C4CC4)c3)c(N3CCN(C)CC3)cn2)n1 [Example 7] | 1 to 10 nM |
| Cc1cc(F)c(C(=O)Nc2cccc(-c3nnnn3C(C)C)n2)cc1-c1ccn(C(C)C)n1 [Example 58] | 10 to 100 nM |
| Cc1cnc(C(=O)Nc2cccc(-n3nnnc3C(C)C)n2)cc1-c1cnn(C(F)(F)F)c1 [Example 31] | > 1000 nM |
| Cc1cnc(C(=O)Nc2cccc(-c3nnnn3C(C)C)n2)cc1-c1cnn(C(F)(F)F)c1 [Example 30] | 10 to 100 nM |
| CC(C)n1nnnc1-c1nc(NC(=O)c2cc(-c3cnn(C4CC4)c3)c(N3CCCCC3)cn2)cs1 [Example 11] | 10 to 100 nM |
| CC(C)n1nnnc1-c1cccc(NC(=O)c2cc(-c3cnn(C4CC4)c3)c(C(F)(F)F)cn2)n1 [Example 14] | 10 to 100 nM |
| Cc1cc(F)c(C(=O)Nc2cccc(-c3nnnn3C(C)C)n2)cc1-c1cn(C(C)C)cn1 [Example 61] | 10 to 100 nM |
| CC(C)n1nnnc1-c1cccc(NC(=O)c2cc(-c3cnn(C4CC4)c3)c(N3CCCCC3)cn2)n1 [Example 5] | 10 to 100 nM |

Further lines, results first:

| IC50 | Compound |
| --- | --- |
| 1 to 10 nM | Cc1cnc(C(=O)Nc2cccc(-c3nnnn3[C@H](C)CO)n2)cc1-c1cnn(C(C)(C)C)c1 [Example 22] |
| 1 to 10 nM | Cc1cnc(C(=O)Nc2cccc(-n3nnnc3C(C)C)n2)cc1-c1cnn(C(C)C)c1 [Example 27] |
| 1 to 10 nM | Cc1cc(F)c(C(=O)Nc2cccc(-c3nnnn3C(C)C)n2)cc1-c1cccnc1 [Example 65] |
| 1 to 10 nM | Cc1cnc(C(=O)Nc2cccc(-c3nnnn3[C@H](C)CO)n2)cc1-c1cnc(C2CC2)s1 [Example 43] |
| 1 to 10 nM | Cc1cnc(C(=O)Nc2cccc(-c3nnnn3[C@H](C)CO)n2)cc1-c1cnn(C(F)(F)F)c1 [Example 32] |
| 1 to 10 nM | Cc1cnc(C(=O)Nc2cccc(-c3nnnn3C(C)C)n2)cc1-c1cccnc1 [Example 37] |
| 1 to 10 nM | COc1cc(C)c(-c2ccn(C(C)C)n2)cc1C(=O)Nc1cccc(-c2nnnn2C(C)C)n1 [Example 78] |
| 1 to 10 nM | Cc1cc(F)c(C(=O)Nc2cccc(-c3nnnn3[C@@H]3CCOC3)n2)cc1-c1cnn(C2CC2)c1 [Example 82] |
| 1 to 10 nM | Cc1cnc(C(=O)Nc2cccc(-c3nnnn3[C@H](C)CO)n2)cc1-c1ccn(C(C)C)n1 [Example 35] |
| 1 to 10 nM | Cc1cnc(C(=O)Nc2cccc(-c3nnnn3[C@H](C)CO)n2)cc1-c1cnn(C2CC2)c1 [Example 13] |
| 1 to 10 nM | COc1cc(C)c(-c2cnn(C)c2)cc1C(=O)Nc1cccc(-n2nnnc2C(C)C)n1 [Example 74] |
| 1 to 10 nM | Cc1cc(F)c(C(=O)Nc2cccc(-c3nnnn3[C@H]3CCOC3)n2)cc1-c1cnn(C2CC2)c1 [Example 81] |
| 1 to 10 nM | Cc1cc(F)c(C(=O)Nc2cccc(-c3nnnn3C(C)C)n2)cc1-c1cnn(C(C)C)c1 [Example 49] |
| < 1 nM | COc1cc(C)c(-c2ccn(C(C)C)n2)cc1C(=O)Nc1cccc(-c2nnnn2[C@H](C)CO)n1 [Example 80] |
| < 1 nM | COc1cc(C)c(-c2cnn(C3CC3)c2)cc1C(=O)Nc1cccc(-c2nnnn2C(C)C)n1 [Example 75] |
| 1 to 10 nM | Cc1cnc(C(=O)Nc2cccc(-c3nnnn3C(C)C)n2)cc1-c1cnn(C(C)C)c1 [Example 26] |
| 1 to 10 nM | CC(C)n1nnnc1-c1nc(NC(=O)c2cc(-c3cnn(C4CC4)c3)c(C(F)F)cn2)cs1 [Example 19] |
| 1 to 10 nM | Cc1cnc(C(=O)Nc2cccc(-c3nnnn3C(C)C)n2)cc1-c1cnn(C(C)(C)C)c1 [Example 20] |
| 1 to 10 nM | CC(C)n1nnnc1-c1nc(NC(=O)c2cc(-c3cnn(C4CC4)c3)c(N3CCOCC3)cn2)cs1 [Example 10] |
